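All cell lines were grown in 96-well plates and treated with compound for 48 hours. At the TGI there is no net growth.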 Where a SMILES comes first, the peptide text is derived from it. [ ]: non-standard residue; d: D form. ΔPro = O=C(O)[CH]1C=CCN1
Experiments:
Assay in all cases: growth of human tumour cells (NCI), 48 h
A498 renal = system: A498 renal
A549 NSCLC = system: A549 NSCLC
EKVX NSCLC = system: EKVX NSCLC
HOP-92 NSCLC = system: HOP-92 NSCLC
HS 578T breast = system: HS 578T breast
LOX IMVI melanoma = system: LOX IMVI melanoma
M14 melanoma = system: M14 melanoma
MDA-N = system: MDA-N
NCI-H522 lung = system: NCI-H522 lung
RXF 393 renal = system: RXF 393 renal
SK-MEL-5 melanoma = system: SK-MEL-5 melanoma
SR leukemia = system: SR leukemia
T-47D breast = system: T-47D breast
U251 CNS = system: U251 CNS
UACC-257 melanoma = system: UACC-257 melanoma
UACC-62 melanoma = system: UACC-62 melanoma
SN12C renal = system: SN12C renal

| Structure (SMILES) | TGI (A498 renal) [µM] | TGI (A549 NSCLC) [µM] | TGI (EKVX NSCLC) [µM] | TGI (HOP-92 NSCLC) [µM] | TGI (HS 578T breast) [µM] | TGI (LOX IMVI melanoma) [µM] | TGI (M14 melanoma) [µM] | TGI (MDA-N) [µM] | TGI (NCI-H522 lung) [µM] | TGI (RXF 393 renal) [µM] | TGI (SK-MEL-5 melanoma) [µM] | TGI (SR leukemia) [µM] | TGI (T-47D breast) [µM] | TGI (U251 CNS) [µM] | TGI (UACC-257 melanoma) [µM] | TGI (UACC-62 melanoma) [µM] | TGI (SN12C renal) [µM] |
| --- | --- | --- | --- | --- | --- | --- | --- | --- | --- | --- | --- | --- | --- | --- | --- | --- | --- |
| O[C@@]1(C#Cc2ccc3c(c2)OCO3)CCC[C@H]1NCc1ccccc1 | 92.5 | > 100 | > 100 | 38 | 50.8 | 30.9 | 29.2 | 32.5 | 29.8 | 86.2 | 36.2 | 50.7 | 41.2 | 59.6 | 63.9 | 36.4 |  |
| C=C1c2nc3ccccc3n2C=C(c2ccccc2)N1c1ccc(Cl)cc1 | > 77 | > 100 | 49.2 | 61.2 | > 59.1 | > 100 | > 75.2 | > 100 | > 100 | > 67.6 | > 100 | > 100 | > 100 | > 70.3 | > 100 | > 100 | > 100 |
| c1ccc2sc(SSSc3nc4ccccc4s3)nc2c1 | > 100 | > 100 | > 100 | > 100 | > 100 | 49 | > 100 | > 100 | > 100 | > 100 | > 100 | > 100 | > 100 | > 100 | > 100 | > 100 | > 100 |
| CCCCCCCCOC(=O)C12Oc3ccc(-c4ccc5c(c4O)C(O)=C4C(=O)CC(C)C(O)C4(C(=O)OCCCCCCCC)O5)c(O)c3C(O)=C1C(=O)CC(C)C2O (configuration not stated) | > 100 | > 100 | > 100 | 42.5 | > 100 | > 100 | > 100 | > 100 | 48.2 | 11.3 | 48.7 | 20.3 | > 100 | 27.5 | > 100 | 99.3 | > 100 |
| CN(C)[C@@H]1C(=O)C(C(=O)NCNc2nc3n[nH]nc3c(=O)[nH]2)=C(O)[C@@]2(O)C(=O)C3=C(O)c4c(O)cccc4[C@@](C)(O)[C@H]3C[C@@H]12 | > 100 | > 100 | > 69.5 | > 30 | 53.5 | 17.3 | 15.8 | 14.5 | > 80.3 | 5.37 | 10.9 | > 19.5 | > 100 | > 61.3 | > 87.8 | 7.59 | > 91.2 |
| O=C(O)C1C=CCN1C(=O)C1C=CCN1C(=O)C1C=CCN1 (configuration not stated) (H-[ΔPro]-[ΔPro]-[ΔPro]-OH; configuration not given here) | > 100 | > 100 | > 100 | > 100 | > 100 | > 100 | > 100 | > 100 | > 100 | > 100 | > 100 | > 100 | > 100 | > 100 | > 100 | > 100 | > 100 |
| CCCC(=O)OCC1OC(n2cc(F)c(=O)[nH]c2=O)CC1O (configuration not stated) | > 9.04 | > 10 | > 10 | > 10 | > 10 | > 8.79 | > 10 | > 10 | > 10 | > 10 | 1.35 | > 10 | > 10 | > 10 | > 10 | > 10 | > 10 |
| CN1CCC2(c3ccccc3)CC(=O)/C(=C/c3ccc(Cl)c(Cl)c3)C1C2 (configuration not stated) | 12.8 | 10.9 | 9.63 | 7.33 | > 45.7 | 3.34 | 8.59 | 13.9 | 3.6 | 7.07 | 8.37 | 4.74 | > 41.5 | 3.47 | 23.3 | 3 | 3.72 |
| CN1CCN(c2cc3nc(-c4ccc(Cl)cc4)[nH]c3cc2F)CC1 | 47.4 | > 59 | 72.3 | > 70.4 | 42.6 | > 65.6 | 8.4 | 50.4 | 32 | 30.9 | 35.5 | > 100 | 65.7 | > 75.9 | 26.2 | 18.9 | > 100 |
| O=S1SC(=S)C2C=CC=NC21 (configuration not stated) | 66.1 | 60.5 | 26.1 | 37.6 | 61.4 | 32.7 | 29.6 | 27.8 | 53 | 32.5 | 53.2 | 77.7 | 58.9 | 35.1 | 29 | 40.2 | 28.8 |
| CC(=O)Nc1cc(Cl)cc(Cl)c1O | > 100 | > 100 | > 100 | > 100 | > 100 |  | > 100 | > 100 | > 100 | > 100 | > 100 | > 100 | > 100 | > 100 | > 100 | > 100 | > 100 |
| O=Cc1ccc2ccocc1-2 | > 100 | > 100 | > 100 | > 100 | > 100 | > 100 | > 100 | > 100 | > 100 | > 100 | > 100 | > 100 | > 100 | > 100 | > 100 | > 100 | > 100 |
| COC(=O)[C@@H]1C[C@@H](O)CN1C(=O)c1ccc([N+](=O)[O-])cc1[N+](=O)[O-] | > 100 | > 100 | > 100 | > 100 | > 100 | > 100 | > 100 | > 100 | > 100 | > 100 | > 100 | > 100 | > 100 | > 100 | > 100 | > 100 | > 100 |
| Cn1nnc2c(C(N)=S)ncn2c1=O | > 100 | > 100 | > 100 | > 100 | > 100 | > 100 | > 100 | > 100 | > 100 | > 100 | > 100 | > 100 | > 100 | > 100 | > 100 | > 100 | > 100 |
| O=c1[nH]c(=O)c2c([nH]1)[nH]c1ccc(Br)cc12 | > 100 | > 100 | > 100 | > 100 | > 100 | > 100 | > 100 | > 100 | > 100 | > 100 | > 100 | > 100 | > 100 |  | > 100 | > 100 | > 100 |
| Cn1c(=O)c2ccccc2[n+]2c(-c3cccc([N+](=O)[O-])c3)csc12 | > 100 | > 100 | > 100 | > 100 | 83.3 | > 100 | > 100 | > 100 | > 100 | > 100 | > 100 | 71.5 | > 100 | > 100 | > 100 | > 100 | > 100 |
| CCN(CC)C1Oc2cc3c(cc2C(c2cc(OC)c(O)c(OC)c2)C1C)OCO3 (configuration not stated) | 64.8 | 60 | > 75.6 | 77.9 | 50.9 | 29 | 20.4 | 4.8 | 11 | > 31.5 | 30.7 | 32.7 | > 73.4 | 26.6 | > 100 | 26.2 | 36.7 |
| COc1ccc(-c2sc(Br)c3c2C(=O)C2OC(=O)NC32)cc1OC (configuration not stated) | > 100 | > 100 | > 100 | > 100 | > 100 | > 100 | > 100 | > 100 | > 100 | > 100 | > 100 | > 100 | > 100 | > 100 | > 100 | > 100 | > 100 |
| C=C1N(S(=O)(=O)c2ccc(C)cc2)C(=O)OCC12CCCC2 | > 100 | > 100 | > 100 | > 100 | > 100 | > 100 | > 100 | > 100 | > 100 | > 100 | 94.6 | > 100 | > 100 | > 100 | > 100 | > 100 |  |
| Cc1ccc(Sc2ccccc2C23OC(C)(C4C(=O)N(c5ccccc5)C(=O)C42)N(C)C3=O)cc1 (configuration not stated) | > 100 | > 100 | > 100 | > 100 | > 100 | > 100 | > 100 | > 100 | > 100 | > 100 | > 100 | > 100 | > 100 | > 100 | > 100 | > 100 | > 100 |
| COc1ccc(N2C(=O)C(Cl)C2c2cc3cc(Br)ccc3nc2Cl)cc1 (configuration not stated) | > 25 | > 25 | 9.86 | 18.3 | > 25 | 4.41 | 11 | 15.7 | 8.33 | 9.38 | 8.63 | 6.82 | > 25 |  | 11.9 | 8.86 | 12.3 |

From PubChem BioAssay (NCI)
